What is called IC50 is the point on the concentration scale where inhibition reaches its midpoint.

The values below come from EP1242382B1, “TRICYCLIC PROTEIN KINASE INHIBITORS” (Wyeth, priority 1999, dated 2001).

In assay [1] the target is T1, EGF-R Kinase (recombinant enzyme) (Homo sapiens, UniProt P00533).
T1 construct: EGFR cDNA encoding amino acids 645 - 1186 preceded by Met-Ala-(His)6; made in house; host or cells: Sf9 insect cells, recombinant baculovirus vHcEGFR52
In words: Inhibition of Epidermal Growth Factor Receptor Kinase (EGF-R) using recombinant enzyme. The class given is biochemical. The following applies: RR-SRC peptide substrate, (a) = average of two tests. As to the method: Representative test compounds are evaluated in a standard pharmacological test procedure to measure their ability to inhibit the phosphorylation of the tyrosine residue of a peptide substrate catalyzed by the enzyme epidermal growth factor receptor kinase. […] The enzyme used in this assay is the His-tagged cytoplasmic domain of EGFR. […] Sf9 cells in 100 mm plates are infected at a multiplicity of infection of 10 pfu/cell and cells are harvested 48 h post infection. A cytoplasmic extract is prepared using 1% Triton X-100 and applied to Ni-NTA column. After washing the column with 20 mM imidazole, HcEGFR is eluted with 250 mM imidazole (in 50 mM Na2HPO4, pH 8.0, 300 mM NaCl). Fractions collected are dialyzed against 10 mM HEPES, pH 7.0, 50 mM NaCl, 10% glycerol, 1ug/mL antipain and leupeptin and 0.1 mM Pefabloc SC. The protein is frozen in dry ice/methanol and stored -70°C.
Test compounds are made into 10 mg/mL stock solutions in 100% dimethylsulfoxide (DMSO). Prior to experiment, stock solutions are diluted to 500 uM with 100% DMSO and then serially diluted to the desired concentration with HEPES buffer (30 mM HEPES pH 7.4).
For the enzyme reaction, 10 uL of each inhibitor (at various concentrations) are added to each well of a 96-well plate. To this is added 3 uL of enzyme (1:10 dilution in 10mM HEPES, pH 7.4 for final conc. of 1:120). This is allowed to sit for 10 min on ice and is followed by the addition of 5 ul peptide (80 uM final conc.), 10ul of 4X Buffer containing 50 mM HEPES (pH 7.4), 200 mM Na3VO4, 40mM MnCl2, 80 uM ATP, 0.25 uL ^33P-ATP (>2500 Ci/mmol; Amersham) and 12 uL H2O. The reaction is allowed to run for 90 min at room temperature and is followed by spotting the entire volume onto precut P81 filter papers. The filter discs are washed 2X with 0.5% phosphoric acid and radioactivity is measured using a liquid scintillation counter.
The % inhibition of the test compound is determined for at least three different concentrations and the IC50 value is evaluated from the dose response curve. […] CPM(control) is in units of counts per minute and is a number expressing the amount of radiolabled ATP (γ-^33P) incorporated into the RR-SRC peptide substrate by the enzyme after 90 minutes at room temperature in the absence of test compound as measured by liquid scintillation counting. The CPM values are corrected for the background counts produced by ATP in the absence of the enzymatic reaction.

A further assay deals with T2, Raf-1 (c-Raf) (Homo sapiens, UniProt P04049).
T2 construct: Sf9 insect cell lysate containing full length 6his-tagged recombinant human c-Raf; host or cells: c-Raf: Sf9 insect cell lysate; MEK1 and MAPK: E. coli
T2 sequence (P04049 whole entry): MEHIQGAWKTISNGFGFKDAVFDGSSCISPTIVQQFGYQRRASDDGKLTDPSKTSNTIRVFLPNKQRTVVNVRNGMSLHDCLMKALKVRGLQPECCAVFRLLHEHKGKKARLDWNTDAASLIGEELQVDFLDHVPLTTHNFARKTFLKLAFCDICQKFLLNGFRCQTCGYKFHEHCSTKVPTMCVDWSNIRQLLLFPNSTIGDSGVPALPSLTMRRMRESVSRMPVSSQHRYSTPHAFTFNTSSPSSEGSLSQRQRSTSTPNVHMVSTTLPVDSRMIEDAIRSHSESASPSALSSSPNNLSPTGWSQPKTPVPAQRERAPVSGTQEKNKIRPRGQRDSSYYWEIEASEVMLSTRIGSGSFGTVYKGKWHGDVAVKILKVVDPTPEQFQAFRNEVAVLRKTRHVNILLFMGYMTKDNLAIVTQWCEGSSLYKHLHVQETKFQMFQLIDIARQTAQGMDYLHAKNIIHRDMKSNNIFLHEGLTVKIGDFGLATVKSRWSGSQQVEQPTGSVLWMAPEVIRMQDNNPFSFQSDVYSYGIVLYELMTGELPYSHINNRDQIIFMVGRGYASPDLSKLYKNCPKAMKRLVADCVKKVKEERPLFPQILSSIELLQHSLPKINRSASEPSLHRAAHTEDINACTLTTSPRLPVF
In words: Raf1 kinase cascade assay procedure. The class given is biochemical. As to the method:
(Specific Activity: ~200U/ml). Human Non-active Mek-1-GST and human GST-MAP kinase (recombinant proteins produced in E. coli).
• 1. Assay Dilution Buffer (ADB): 20mM MOPS, pH 7.2, 25mM β-glycerol phosphate, 5mM EGTA, 1mM sodium orthovanadate, 1mM dithiothreitol. • 2. Magnesium/ATP Cocktail: 500µM cold ATP and 75 mM magnesium chloride in ADB. • 4. Active Kinase: Human Active c-Raf: Use at 0.4U per assay point • 5. Non-active GST-MEK1: Use at 0.1µg per assay point. • 6. Non-active GST-p42 MAP Kinase: Use at 1.0 µg per assay point
• 1. TBST - Tris (50 mM, pH 7.5), NaCl (150 mM), Tween-20 (0.05 %) • 2. Superblock (Pierce) • 3. Anti-GST Ab (Pharmacia) • 4. Anti-Phospho MAPK (Sigma) • 5. Anti-Mouse Ab / Europium conjugate (Wallac)
First Stage: c-Raf Dependent Activation of GST-MEK and GST-MAPK • 1. Add […] of ADB per assay (i.e. per well of a 96 well plate) • 2. Add 10 ml of 0.5 mM cold ATP and 75 mM magnesium chloride in ADB. • 3. Add 2 ml of c-Raf (0.4U/assay), in conjunction with 1.6ml non-active MEK1 ([…]). • 4. Add 4 ml of non-active GST-p42 MAP Kinase (1.0 mg/assay). • 5. Incubate for 60 minutes at 30°C in a shaking incubator. • 6. Transfer this mixture to an anti-GST Ab coated 96 well plate (Nunc Immunosorb plates coated o/n with a-GST, then blocked with Pierce Superblock). • 7. Incubate for 60 minutes at 30°C in a shaking incubator Wash 3X with TBST, add Anti-Phospho MAPK (Sigma) (1:3000) • 6. Incubate for 60 minutes at 30°C in a shaking incubator • 7. Wash 3X with TBST, add Anti-Mouse Ab / Europium conjugate (Wallac) (1:500) • 8. Incubate for 60 minutes at 30°C in a shaking incubator • 9. Wash 3X with TBST, Read plates in Wallac Victor model Plate Reader. • 10. Collect data analyze in Excel for single point and IC50 determinations.
Typically Raf-1 assay is run at compound concentrations from 10 µM to 1 nM in half log dilutions. (% inhibition is determined for each compound concentration).

Assay [2] relates to human adenocarcinoma cell line CaCo-2. In words: Cell based screen for inhibitors of Raf kinase, quantitative assay. The following applies: Caco-2, 96 h, four days incubation. As for the experimental part: (§1) • Cell Lines: Human adenocarcinoma cell line LoVo which is known to be growth inhibited by low nM concentrations of a reference standard inhibitor of Ras and human adenocarcinoma cell line CaCo-2, which is known to be growth resistant to the same reference compound. • Cell Media : RPMI 1640 with 10% Fetal Bovine Serum supplemented with L-glutamine and Pennicilin/Streptomycin. • Compounds: Supplied usually as a 10 mM stock in 100% DMSO. • Normal Saline: 150 mM NaCl • Trichloroacetic Acid (TCA): 50% (w/v) in water • Sulforhodamine B (SRB): 0.4% (w/v) in 1% Acetic Acid • Tris Base: 10 mM in water
(§2) Cells are plated at 2000 cells per well for cell line LoVo and 1500 cells for cell line CaCo-2 in 96 well plates. Cells are plated in media (200 µl) and allowed to adhere overnight at 37°C. At 24 hours post plating, compounds are added directly at a volume of 0.5 µl. For the qualitative screen (compounds screened at 25 µM) compound is added directly to cells. For the quantitative screen, compound is first diluted in DMSO to generate concentrations of compound or reference standard of: 1, 5, 10 and 25 µM. It is advisable to make the dilutions in an identical 96 well plate so that compounds can be added using a multichannel micropipettor set at 0.5 µl. The cells are then incubated for four days after which the media is removed using a 12 well manifold by first tipping the plate forward at a 45 degree angle and then inserting the manifold in an upright orientation to prevent the tips of the manifold from disturbing cells at the bottom of the plate. 200 µl of normal saline is then added to each well using an 8 well multichannel pipettor, followed by the careful addition of 50 µl of 50% TCA. The plates are then incubated for 2 hours at 4°C, after which the supernatant is removed using the same technique as above and the plated washed twice with 200 µl water. The plates are then air dried and 50 µl of SRB stock solution is carefully added so that the entire bottom of each well is covered. This again can be used using an 8 well multichannel pipettor. The SRB is incubated with fixed cells for 15 minutes at room temperature after which the SRB is removed with the manifold as described above and the plates washed twice with 350 µl of 1% acetic acid per well each time. The plates are then air dried after which the bound SRB is released from protein by the addition of 200 µl of Tris base. Resolubilizing the SRB is aided by placing the plates on a rotator for 15-30 minutes. The absorbance of each well is determined at 550 or 562 nm using a microtiter plate reader.
(§3) Each compound or dilution thereof is performed in triplicate. Outliers are identified by visual inspection of the data. Each plate should have a "0" control (vehicle only).
(§4) Quantitative Assay: A standard curve is constructed by plotting the concentration of compound against the average absorbance calculated at that concentration. […] Multiple entries for a given compound indicate that it is tested multiple times.

Assay [3] concerns Human adenocarcinoma cell line LoVo. The assay is described as above. The following applies: 96 h, four days incubation. As for the experimental part:
as §1, §2, §3, §4

T1 sequence (P00533 669-1210): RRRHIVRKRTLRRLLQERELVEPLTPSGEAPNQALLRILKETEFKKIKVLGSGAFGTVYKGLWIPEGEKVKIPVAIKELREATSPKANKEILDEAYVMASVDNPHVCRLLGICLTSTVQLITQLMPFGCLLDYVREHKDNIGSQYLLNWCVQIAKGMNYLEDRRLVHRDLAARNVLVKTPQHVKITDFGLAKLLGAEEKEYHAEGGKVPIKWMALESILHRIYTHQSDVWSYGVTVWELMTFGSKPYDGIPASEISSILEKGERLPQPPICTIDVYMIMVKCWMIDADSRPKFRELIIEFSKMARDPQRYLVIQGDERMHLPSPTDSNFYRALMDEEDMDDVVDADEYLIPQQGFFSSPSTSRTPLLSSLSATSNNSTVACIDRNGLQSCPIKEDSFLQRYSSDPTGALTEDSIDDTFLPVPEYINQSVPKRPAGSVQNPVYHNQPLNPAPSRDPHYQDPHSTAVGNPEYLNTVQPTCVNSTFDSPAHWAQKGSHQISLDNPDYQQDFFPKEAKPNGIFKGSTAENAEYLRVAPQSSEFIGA

In the case of `COc1cc(Nc2c(C#N)cnc3cc4cc(OCCN5CCOCC5)c(OC)cc4cc23)c(Cl)cc1C` [Example 216, 4-(2-Chloro-5-methoxy-4-methylphenylamino)-7-methoxy-8-(2-morpholin-4-yl-ethoxy)benzo[g]quinoline-3-carbonitrile], in assay [1], the IC50 was 290 nM.
Still for that read-out and setting: for `COc1cc2cc3c(Nc4ccc(F)c(Cl)c4)c(C#N)cnc3cc2cc1OCCN1CCOCC1` [Example 205, 4-(3-Chloro-4-fluoroanilino)-7-methoxy-8-[2-(4-morpholinyl)ethoxy]benzo[g]quinoline-3-carbonitrile] the value was 250 nM.
For the compound `COc1cc2cc3c(Nc4ccc(Oc5ccccc5)c(Cl)c4)c(C#N)cnc3cc2cc1OCCN1CCOCC1` [Example 213, 4-(3-Chloro-4-phenoxyphenylamino)-7-methoxy-8-(2-morpholin-4-yl-ethoxy)benzo[g]quinoline-3-carbonitrile], the results for the IC50 (at Raf-1 (c-Raf); in assay [2]; in assay [3]) were 27 nM, 1400 nM and 300 nM, respectively.
For `N#Cc1cnc2c(c1Nc1ccc(Oc3ccccc3)cc1)C=C1N=CN=C1C2` [Example 44, 8-(4-Phenoxyanilino)imidazo[4,5-g]quinoline-7-carbonitrile], the IC50 against Raf-1 (c-Raf) is 9 nM; in assay [2] it was 9200 nM; in assay [3] it was 850 nM.
The matching figures for `COc1cc2cc3c(Nc4ccc(Sc5nccn5C)c(Cl)c4)c(C#N)cnc3nc2cc1OCCN1CCOCC1` [Example 176, 4-{3-Chloro-4-[(1-methyl-1H-imidazol-2-yl)sulfanyl]anilino}-7-methoxy-8-[2-(4-morpholinyl)ethoxy]benzo[b][1,8]naphthyridine-3-carbonitrile]: 3000 nM, 10000 nM and 3500 nM.
The matching figures for `COc1cc2cc3ncc(C#N)c(Nc4ccc(OCc5ccccc5)c(Cl)c4)c3cc2cc1OCCN1CCOCC1` [Example 217, 4-(4-Benzyloxy-3-chlorophenylamino)-8-methoxy-7-(2-morpholin-4-yl-ethoxy)benzo[g]quinoline-3-carbonitrile]: above 10000 nM, 4800 nM and 480 nM.
The matching figures for `COc1cc2cc3c(Nc4ccc(Sc5nccn5C)c(Cl)c4)c(C#N)cnc3nc2cc1OCCCl` [Example 174, 8-(2-Chloroethoxy)-4-{3-chloro-4-[(1-methyl-1H-imidazol-2-yl)sulfanyl]anilino}-7-methoxybenzo[b][1,8]naphthyridine-3-carbonitrile]: above 10000 nM, 4000 nM and 440 nM.
As to `COc1cc(Nc2c(C#N)cnc3cc4cc(OCCN5CCOCC5)c(OC)cc4cc23)c(C)cc1Cl` [Example 124, 4-(4-chloro-5-methoxy-2-methylanilino)-7-methoxy-8-[2-(4-morpholinyl)ethoxy]benzo[g]quinoline-3-carbonitrile], the results for the IC50 (against Raf-1 (c-Raf); in assay [1]) were 130 nM and 3000 nM, respectively.
As for `COc1cc2cc3ncc(C#N)c(Nc4ccc(Oc5ccccc5)c(Cl)c4)c3cc2cc1OCCN1CCOCC1` [Example 214, 4-(3-Chloro-4-phenoxyphenylamino)-8-methoxy-7-(2-morpholin-4-yl-ethoxy)benzo[g]quinoline-3-carbonitrile], the IC50 on Raf-1 (c-Raf) was found to be 310 nM; in assay [2], 8000 nM; in assay [3], 250 nM.
